Tests used:
[1] = molecular target: T1, Cathepsin K (Homo sapiens, UniProt P43235); test: Cathepsin K inhibition assay (fluorogenic peptide substrate); selectivity ratio vs cathepsin S; assay type: biochemical; conditions: ratio of cathepsin K inhibition constant to cathepsin S inhibition constant; Table II
T1 sequence (P43235 115-329): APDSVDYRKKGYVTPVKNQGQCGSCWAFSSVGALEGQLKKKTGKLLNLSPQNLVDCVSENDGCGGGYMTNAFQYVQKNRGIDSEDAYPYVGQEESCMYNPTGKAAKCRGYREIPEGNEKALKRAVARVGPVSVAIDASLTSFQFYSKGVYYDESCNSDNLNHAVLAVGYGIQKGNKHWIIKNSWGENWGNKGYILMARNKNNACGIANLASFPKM
In short: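 Inhibition constants for competitive inhibitors come from apparent values fitted to enzyme progress curves. Substrate, acetyl-Lys-His-Pro-Lys-aminocarbamoylcoumarin (40 μM final), starts the reaction; fluorescence rise read at 380 nm excitation, 450 nm emission. Selectivity ratio: other cathepsin constant over cathepsin S constant.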

[2] = molecular target: Cathepsin S (Homo sapiens, UniProt P25774); test: Cathepsin S inhibition assay (fluorogenic peptide substrate); assay type: biochemical; conditions: Table II, compounds of Formula I; read-out: Ki Cat. S
Cathepsin S, sequence (P25774 115-331, species assumed): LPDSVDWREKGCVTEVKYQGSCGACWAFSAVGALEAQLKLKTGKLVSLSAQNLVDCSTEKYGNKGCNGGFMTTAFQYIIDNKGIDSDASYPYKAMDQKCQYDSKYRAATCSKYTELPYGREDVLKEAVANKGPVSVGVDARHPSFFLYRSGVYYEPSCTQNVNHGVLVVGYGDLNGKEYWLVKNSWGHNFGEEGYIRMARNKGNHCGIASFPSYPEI
In short: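 Ki values come from nonlinear fitting of inhibited hydrolysis rates, taking free and total inhibitor concentrations as equal. Rates measured as rising fluorescence at 380/450 nm after reaction start with 50 μM final acetyl-HPVK-aminocarbamoylcoumarin.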

Compound	Selectivity for Cat. S over Cat. K [1]	Ki [2] [nM]
CC[C@@H](C(=O)N[C@@H](CCC1CCCCC1)C(=O)NCCNc1ccc(OC)cc1)c1ccccc1 [Compound 75, N-{3-Cyclohexyl-1-(S)-[2-(4-methoxy-phenylamino)-ethylcarbamoyl]-propyl}-2-(R)-phenyl-butyramide]	+++ (+++, >1000)	< 100
O=C(N[C@@H](CC1CCCCC1)C(=O)NCCNc1ccccc1C(=O)O)c1ccc(-c2cccc(C(F)(F)F)c2)o1 [Compound 12, 2-[2-(3-Cyclohexyl-2-(S)-{[5-(3-trifluoromethyl-phenyl)-furan-2-carbonyl]-amino}-propionylamino)-ethylamino]-benzoic acid]	+ (+, >10)	< 100
CC(=O)N1CCC(C(=O)N[C@@H](CC2CCCCC2)C(=O)NCCNc2ccc(OC(F)(F)F)cc2)CC1 [Compound 14, 1-Acetyl-piperidine-4-carboxylic acid (S)-{2-cyclohexyl-1-[2-(4-trifluoromethoxy-phenylamino)-ethylcarbamoyl]-ethyl}-amide]	++ (++, >100)	< 1000
O=C(N[C@@H](CC1CCCCC1)C(=O)NCCNc1ccc(OC(F)(F)F)cc1)c1ccoc1 [Compound 26]	++ (++, >100)	< 100
C[C@@H](C(=O)N[C@@H](CC1CCCCC1)C(=O)NCCNc1ccc(F)cc1)c1ccccc1 [Compound 315, N-{2-cyclohexyl-1-(S)-[2-(4-fluoro-phenylamino)-ethylcarbamoyl]-ethyl}-2-(R)-phenyl-propionamide]	++ (++, >100)	< 100
COc1ccc(NCCNC(=O)[C@H](Cc2cccc3ccccc23)NC(=O)c2cccc(C)c2)cc1 [Compound 258, (S)-N-{1-[2-(4-Methoxy-phenylamino)-ethylcarbamoyl]-2-naphthalen-1-yl-ethyl}-3-methyl-benzamide]	+++ (+++, >1000)	< 100
COc1ccc(CC(=O)NC(CC2CCCCC2)C(=O)NCCNc2ccc(OC(F)(F)F)cc2)cc1 (stereo not drawn) [Compound 17, 3-Cyclohexyl-2-[2-(4-methoxy-phenyl)-acetylamino]-N-[2-(4-trifluoromethoxy-phenylamino)-ethyl]-propionamide]	++ (++, >100)	< 100
COc1ccc(NCCNC(=O)[C@H](CC2CCCCC2)NC(=O)c2ccc(Br)s2)cc1 [Compound 182, (S)-5-Bromo-thiophene-2-carboxylic acid {2-cyclohexyl-1-[2-(4-methoxy-phenylamino)-ethylcarbamoyl]-ethyl}-amide]	+ (+, >10)	< 100
COc1ccc(NCCNC(=O)[C@H](CCC2CCCCC2)NC(=O)c2cccc(-c3csc(C)n3)c2)cc1 [Compound 142, (S)-N-{3-Cyclohexyl-1-[2-(4-methoxy-phenylamino)-ethylcarbamoyl]-propyl}-3-(2-methyl-thiazol-4-yl)-benzamide]	+++ (+++, >1000)	< 100
COc1ccc(NCCNC(=O)[C@H](Cc2ccccc2)NC(=O)Nc2ccccc2C)cc1 [Compound 97, (S)-N-[2-(4-Methoxy-phenylamino)-ethyl]-3-phenyl-2-(3-o-tolyl-ureido)-propionamide]	+ (+, >10)	< 1000
COc1ccc(NCCNC(=O)[C@H](Cc2ccc(Oc3cc(C)cc(C)c3)cc2)NC(=O)c2cccc(C)c2)cc1 [Compound 330, (S)-N-{2-[4-(3,5-Dimethyl-phenoxy)-phenyl]-1-[2-(4-methoxy-phenylamino)-ethylcarbamoyl]-ethyl}-3-methyl-benzamide]	++ (++, >100)	< 1000
O=C(N[C@@H](CC1CCCCC1)C(=O)NCCNc1ccc(OC(F)(F)F)cc1)c1ccc(-c2ccc(OC(F)(F)F)cc2)o1 [Compound 215, (S)-5-(4-Trifluoromethoxy-phenyl)-furan-2-carboxylic acid {2-cyclohexyl-1-[2-(4-trifluoromethoxy-phenylamino)-ethylcarbamoyl]-ethyl}-amide]	+++ (+++, >1000)	< 100
O=C(Cc1ccc(F)cc1Cl)N[C@@H](CC1CCCCC1)C(=O)NCCNc1ccc(F)cc1 [Compound 107, 2-(S)-[2-(2-Chloro-4-fluoro-phenyl)-acetylamino]-3-cyclohexyl-N-[2-(4-fluoro-phenylamino)-ethyl]-propionamide]	+++ (+++, >1000)	< 100
COc1ccc(NCCNC(=O)[C@H](CCC2CCCCC2)NC(=O)c2cccc(C#N)c2)cc1 [Compound 139, (S)-3-Cyano-N-{3-cyclohexyl-1-[2-(4-methoxy-phenylamino)-ethylcarbamoyl]-propyl}-benzamide]	+++ (+++, >1000)	< 100
COc1ccc(NCCNC(=O)[C@H](CC2CCCCC2)NC(=O)c2ccc(OCc3ccccc3)cc2)cc1 [Compound 109, (S)-4-Benzyloxy-N-{2-cyclohexyl-1-[2-(4-methoxy-phenylamino)-ethylcarbamoyl]-ethyl}-benzamide]	+++ (+++, >1000)	< 100
CC(C(=O)N[C@@H](CC1CCCCC1)C(=O)NCCNc1ccc(F)cc1)c1ccc(F)cc1 (stereo partly drawn) [Compound 310, N-{2-cyclohexyl-1-(S)-[2-(4-fluoro-phenylamino)-ethylcarbamoyl]-ethyl}-2-(4-fluoro-phenyl)-propionamide]	++ (++, >100)	< 100
Cc1cc(C)nc(N(C)c2cccc(C(=O)N[C@@H](CC3CCCCC3)C(=O)NCCNc3ccc(OC(F)(F)F)cc3)c2)n1 [Compound 71, N-(S)-{2-cyclohexyl-1-[2-(4-trifluoromethoxy-phenylamino)-ethylcarbamoyl]-ethyl}-3-[(4,6-dimethyl-pyrimidin-2-yl)-methyl-amino]-benzamide]	++ (++, >100)	< 100
COc1ccc(NCCNC(=O)[C@H](CC2CCCCC2)NC(=O)c2cnn(-c3ccc(Cl)cc3)c2C)cc1 [Compound 163, (S)-1-(4-Chloro-phenyl)-5-methyl-1H-pyrazole-4-carboxylic acid {2-cyclohexyl-1-[2-(4-methoxy-phenylamino)-ethylcarbamoyl]-ethyl}-amide]	+ (+, >10)	< 100
COc1ccc(NCCNC(=O)[C@H](Cc2ccc(-c3ccccc3[N+](=O)[O-])cc2)NC(=O)c2cccc(C)c2)cc1 [Compound 273, (S)-N-[1-[2-(4-Methoxy-phenylamino)-ethylcarbamoyl]-2-(2′-nitro-biphenyl-4-yl)-ethyl]-3-methyl-benzamide]	++ (++, >100)	< 1000
O=C(N[C@@H](CC1CCCCC1)C(=O)NCCNc1ccc(OC(F)(F)F)cc1)C1CCN(c2ncc(Br)cn2)CC1 [Compound 81, 1-(5-Bromo-pyrimidin-2-yl)-piperidine-4-carboxylic acid (S)-{2-cyclohexyl-1-[2-(4-trifluoromethoxy-phenylamino)-ethylcarbamoyl]-ethyl}-amide]	++ (++, >100)	< 1000
CC[C@@H](C(=O)N[C@@H](CC1CCCCC1)C(=O)NCCNc1ccc(F)cc1)c1ccccc1 [Compound 318, N-{2-cyclohexyl-1-(S)-[2-(4-fluoro-phenylamino)-ethylcarbamoyl]-ethyl}-2-(R)-phenyl-butyramide]	+ (+, >10)	< 100
COc1ccc(NCCNC(=O)[C@H](Cc2ccc(-c3cccc(N)c3)cc2)NC(=O)c2cccc(C)c2)cc1 [Compound 280, (S)-N-{2-(3′-Amino-biphenyl-4-yl)-1-[2-(4-methoxy-phenylamino)-ethylcarbamoyl]-ethyl}-3-methyl-benzamide]	++ (++, >100)	< 1000
COc1ccc(NCCNC(=O)[C@H](CCC2CCCCC2)NC(=O)[C@@H](C)c2ccccc2)cc1 [Compound 128]	+++ (+++, >1000)	< 100
O=C(N[C@@H](CC1CCCCC1)C(=O)NCCNc1ccc(F)cc1)c1ccnnc1 [Compound 295, Pyridazine-4-carboxylic acid (S)-{2-cyclohexyl-1-[2-(4-fluoro-phenylamino)-ethylcarbamoyl]-ethyl}-amide]	++ (++, >100)	< 1000
CS(=O)(=O)c1ccc(C(=O)N[C@@H](CC2CCCCC2)C(=O)NCCNc2ccc(OC(F)(F)F)cc2)s1 [Compound 53, 5-Methanesulfonyl-thiophene-2-carboxylic acid (S)-{2-cyclohexyl-1-[2-(4-trifluoromethoxy-phenylamino)-ethylcarbamoyl]-ethyl}-amide]	+++ (+++, >1000)	< 100
COc1ccc(NCCNC(=O)[C@H](CC2CCCCC2)NC(=O)c2cc(C(F)(F)F)ccc2F)cc1 [Compound 154, (S)-N-{2-Cyclohexyl-1-[2-(4-methoxy-phenylamino)-ethylcarbamoyl]-ethyl}-2-fluoro-5-trifluoromethyl-benzamide]	++ (++, >100)	< 100
COc1ccc(NCCNC(=O)[C@H](CC2CCCCC2)NC(=O)c2ccc(-c3cc(C(F)(F)F)ccc3Cl)o2)cc1 [Compound 193, (S)-5-(2-Chloro-5-trifluoromethyl-phenyl)-furan-2-carboxylic acid {2-cyclohexyl-1-[2-(4-methoxy-phenylamino)-ethylcarbamoyl]-ethyl}-amide]	++ (++, >100)	< 100

— patent US7109243B2 (IRM LLC, priority 2003, dated 2006)
